Source: patent publication US20220125745A1, “PHARMACEUTICAL COMPOSITION FOR CO-ADMINISTRATION OF ACIDOSIS-INDUCING DRUG” (HAIM BIO CO., LTD., priority 2018, published 2022)
Read-outs that look alike come from different tables or passages of the source.

Legend:
[1] = test system: A549 cells (cancer cells); assay: Lactate assay (luminescence) in A549 cells, candidate substance alone or combined with a substance that causes lactic acidosis; type: cell-based; details: for activity at 50 µM: Homo sapiens
Description: (§1) To identify the effects of administration of the candidate substances for lactic acidosis treatment as described in Example 1 in combination with the above-mentioned substances that cause lactic acidosis, A549 cells (cancer cells) or L132 cells (normal cells) were respectively seeded in 96- or 24-well plates at a concentration of 1×10^4 or 3×10^5 cells/well, and incubation was performed overnight. Administration of the candidate substance for acidosis treatment in combination with the substance that causes lactic acidosis was performed and incubation was further performed for 24 hours. For the candidate substances for acidosis treatment, each substance was administered at a uniform concentration of 50 μM; and for the substances that cause lactic acidosis, metformin was administered at 1 to 100 μM, isoniazid was administered at 1 to 500 μM, berberine was administered at 10 μM, linezolid was administered at 200 μM, and phenformin was administered at 100 μM. All substances were dissolved in dimethyl sulfoxide (DMSO, Sigma-Aldrich Corporation, St. Louis, Mo., USA), and the substances to be administered in combination were administered simultaneously. Subsequently, 50 μl of the cell culture solution obtained by being diluted with Dulbecco's Phosphate-Buffered Saline (DPBS; Wellgene, Korea), and 50 μl of the lactate assay reaction buffer (Promega, Madison, Wis., USA) were mixed and the mixture was added in a 96-well plate. Reaction was allowed to proceed at room temperature for 1 hour. Then, luminescence was measured with a spectrophotometer (Synergy HTX Multi-Reader; BioTek, Winooski, Vt., USA). At the same time, the number of cells in each sample was measured with a cell viability analysis kit (Cell Counting Kit-8; Dojindo Molecular Technologies, Inc., Kumamoto, Japan), and calculation was performed so that the lactic acid measurement value in each sample could be compared with that in the negative control for the same number of cells.

[2] = test system: L132 cells (normal cells); assay: Lactate assay (luminescence) in L132 cells, candidate substance alone or combined with a substance that causes lactic acidosis; type: cell-based; details: for activity at 50 µM: Homo sapiens
Description: as §1

[3] = A549, candidate 50 μM + berberine 10 μM, relative to berberine alone (PC)
[4] = A549, candidate 50 μM + linezolid 200 μM, relative to linezolid alone (PC)
[5] = A549, candidate 50 μM + phenformin 100 μM, relative to phenformin alone (PC)
[6] = A549, 24 h, read-out: Luminescence intensity (%), Berberine (10 μM) −
[7] = A549, 24 h, read-out: Luminescence intensity (%), Linezolid (200 μM) −
[8] = A549, 24 h, read-out: Luminescence intensity (%), Phenformin (100 μM) −
[9] = L132, 24 h, read-out: Luminescence intensity (%), Berberine (10 μM) −
[10] = L132, 24 h, read-out: Luminescence intensity (%), Linezolid (200 μM) −
[11] = L132, 24 h, read-out: Luminescence intensity (%), Phenformin (100 μM) −
[12] = L132, candidate 50 μM + berberine 10 μM, relative to berberine alone (PC)
[13] = L132, candidate 50 μM + linezolid 200 μM, relative to linezolid alone (PC)
[14] = L132, candidate 50 μM + phenformin 100 μM, relative to phenformin alone (PC)
[15] = A549, candidate 50 μM alone, no berberine, 24 h, vs negative control, mean ± SEM, read-out: Luminescence intensity (%), Berberine (10 μM) −
[16] = A549, candidate 50 μM alone, no linezolid, 24 h, vs negative control, mean ± SEM, read-out: Luminescence intensity (%), Linezolid (200 μM) −
[17] = A549, candidate 50 μM alone, no phenformin, 24 h, vs negative control, mean ± SEM, read-out: Luminescence intensity (%), Phenformin (100 μM) −
[18] = L132, candidate 50 μM alone, no berberine, 24 h, vs negative control, mean ± SEM, read-out: Luminescence intensity (%), Berberine (10 μM) −
[19] = L132, candidate 50 μM alone, no linezolid, 24 h, vs negative control, mean ± SEM, read-out: Luminescence intensity (%), Linezolid (200 μM) −
[20] = L132, candidate 50 μM alone, no phenformin, 24 h, vs negative control, mean ± SEM, read-out: Luminescence intensity (%), Phenformin (100 μM) −

Structure (SMILES) | Lactic acid value vs. PC (%) [1, 3] [%] | Lactic acid-decreasing rate vs. PC (%) [1, 3] [%] | Lactic acid value vs. PC (%) [1, 4] [%] | Lactic acid-decreasing rate vs. PC (%) [1, 4] [%] | Lactic acid value vs. PC (%) [1, 5] [%] | Lactic acid-decreasing rate vs. PC (%) [1, 5] [%] | activity at 50 µM [1, 6] [%] | activity at 50 µM [1, 7] [%] | activity at 50 µM [1, 8] [%] | activity at 50 µM [2, 9] [%] | activity at 50 µM [2, 10] [%] | activity at 50 µM [2, 11] [%] | Lactic acid value vs. PC (%) [2, 12] [%] | Lactic acid-decreasing rate vs. PC (%) [2, 12] [%] | Lactic acid value vs. PC (%) [2, 13] [%] | Lactic acid-decreasing rate vs. PC (%) [2, 13] [%] | Lactic acid value vs. PC (%) [2, 14] [%] | Lactic acid-decreasing rate vs. PC (%) [2, 14] [%] | activity at 50 µM [1, 15] [%] | activity at 50 µM [1, 16] [%] | also measured
O=c1c(-c2ccc(O)cc2)coc2cc(O[C@@H]3O[C@H](CO)[C@@H](O)[C@H](O)[C@H]3O)ccc12 [Daidzin] | 92.49 | 7.51 | 82.45 | 17.55 | 99.76 | 0.24 | 97.4 ± 1.1 | 97.4 ± 1.1 | 97.4 ± 1.1 | 92 ± 1.14 | 92 ± 1.14 | 92 ± 1.14 | 95.94 | 4.06 | 87.80 | 12.20 | 98.19 | 1.81 |  |  | 
CCN(CC)C(=S)SSC(=S)N(CC)CC [Disulfiram] | 75.67 | 24.33 | 80.93 | 19.07 | 90.83 | 9.17 |  |  |  |  |  |  | 69.16 | 30.84 | 87.16 | 12.84 | 78.21 | 21.79 | 86.1 ± 1.66 | 86.1 ± 1.66 | activity at 50 µM [1, 17]: 86.1 ± 1.66%; activity at 50 µM [2, 18]: 93.4 ± 2.64%; activity at 50 µM [2, 19]: 93.4 ± 2.64%; activity at 50 µM [2, 20]: 93.4 ± 2.64%; Luminescence intensity (%), Linezolid (200 μM) − ([2]; L132, candidate 50 μM alone, no linezolid, 24 h, vs negative control, mean ± SEM): 93.39 ± 2.64 %
Cc1cc2c(C(C)C)c(O)c(O)c(C=O)c2c(O)c1-c1c(C)cc2c(C(C)C)c(O)c(O)c(C=O)c2c1O [Gossypol] | 62.63 | 37.37 | 67.86 | 32.14 | 67.24 | 32.76 | 87.6 ± 1.87 | 87.6 ± 1.87 | 87.6 ± 1.87 | 84.3 ± 2.9 | 84.3 ± 2.9 | 84.3 ± 2.9 | 50.96 | 49.04 | 67.84 | 32.16 | 51.58 | 48.42 |  |  | 
O=C(O)c1cc(=O)c2ccccc2[nH]1 [Kynurenic acid] | 101.87 | −1.87 | 91.54 | 8.46 | 92.58 | 7.42 |  |  |  |  |  |  | 90.59 | 9.41 | 93.53 | 6.47 | 91.70 | 8.30 | 93.9 ± 1.1 | 93.9 ± 1.1 | activity at 50 µM [1, 17]: 93.9 ± 1.1%; activity at 50 µM [2, 18]: 93.7 ± 1.3%; activity at 50 µM [2, 19]: 93.7 ± 1.3%; activity at 50 µM [2, 20]: 93.7 ± 1.3%
